According to patent publication US8911995B2, “Culture system and method for immunogenicity and immunofunction testing in vitro” (ProBioGen AG, priority 2007, dated 2014):

Tested on: human PBMC
Experiment: Cytokine profile of matrix-embedded, perfused PBMC cultures in device 1 (multiplex bead array)
Format: cell-based
Experimental: Cryopreserved human PBMC, isolated from whole blood by ficoll density gradient centrifugation, were revitalised using standard protocols. The cell concentration was adjusted to 3 E8 viable cells per mL in X-Vivo 15 cell culture media (Lonza, Basel, Switzerland) supplemented with 5 mg/mL agarose type VII (made from 50 mg/mL 37° C. liquid solution, Sigma-Aldrich, St. Louis, Mo.), 2.5 μg/mL fibronectin (human, Sigma-Aldrich, St. Louis, Mo.) and 1× penicillin/streptomycin solution (100×, Invitrogen, Carlsbad, Calif.).
The device was made of a 1 mm PC plate housing the culture compartment, feeding and draining canals (see FIGS. 1 and 1A). The plate was covered with a 1 mm PC plate on top were the luer connectors were attached and a gas permeable membrane (Biofoil25, Greiner bio-one, Kremsmünster, Germany) at the bottom of the plate for optimal gas supply of the culture. The culture compartment of this special embodiment of device 1 has a volume of 160 μL. The device was incubated in a humidified incubator (37° C./5% carbon dioxide).
Three culture compartments of the device, further illustrated in FIG. 1A, were filled with cell suspension in liquid agarose media avoiding air bubbles (4,8 E7 viable PBMC/compartment). The whole culture device was cooled down to 4° C. for 5 min in order to let the matrix gel. Subsequently the surrounding fluidic system was prefilled with X-Vivo 15 cell culture media and was applied to the luer connectors of the culture device. A flow rate of 13.1 μL/h was set up using a peristaltic media pump.
Samples were taken every day and immediately frozen down to −20° C. for subsequent cytokine analyses using multiplex bead array technology (Luminex, Austin, Tex.).
After the second sample was taken 24 hours after innoculation, 100 μL OKT-3 antibody (100 ng/mL solution in X-Vivo 15, Ortho Biotech, Bridgewater, N.J.) were administered via an injection site in the fluidic system. 5 days after inoculation the last sample was taken and viability of the cultures was checked with acridine orange (1 μg/mL, Sigma, St. Louis, […].) and ethidium bromide (4 μg/mL, Sigma, St. Louis, […].).
The experiment was conducted as described in example 1. PBMCs were derived from a differed donor and cells were subsequently cultured in RPMI 1640 (Invitrogen, Carlsbad, Calif.) supplemented with 10% FCS (Biochrom, Berlin, Germany) and 1× penicillin/streptomycin solution (100×, Invitrogen, Carlsbad, Calif.). As described previously, the culture compartment of culture device 1 (see FIGS. 1 and 1A) was filled with liquid agarose-media (RPMI 1640 10% FCS cell culture media supplemented with 5 mg/mL agarose type VII (from 50 mg/mL 37° C. liquid solution, Sigma-Aldrich, St. Louis, Mo.), 2.5 μg/mL fibronectin (human, Sigma-Aldrich, St. Louis, Mo.) and 1× penicillin/streptomycin solution (100×, Invitrogen, Carlsbad, Calif.) and cells (4,8 E7 PBMC/compartment). After pre-incubation for 24 hours with a constant perfusion rate of 13.1 μL culture media, 100 μL of a 100 ng/mL OKT-3 solution was administered. Samples were taken every 24 hours and frozen down to −20° C. before the cytokine levels were determined.

[1] = Example 1, X-Vivo 15 medium, 100 μL of 100 ng/mL OKT-3
[2] = Example 2, different donor, RPMI 1640 10% FCS, 100 μL of 100 ng/mL OKT-3

Muromonab-CD3 [OKT-3]
IFN-gamma release [1]: released
IL-5 level [1]: raises initially
TNF-alpha release [1]: released
IL-2 release (Example 1, X-Vivo 15 medium, 24 hours after administration of 100 μL of 100 ng/mL OKT-3): massive IL-2 burst
IL-2 level after the initial burst (Example 1, X-Vivo 15 medium, after 72 hours): declined
IFN-gamma level [2]: only raise slightly
IL-2 release [2]: massive IL-2 release
IL-5 level [2]: raises initially
TNF-alpha level [2]: only raise slightly
